The results in this text go back to DBAASP.

Among the test systems are Campylobacter jejuni; Escherichia coli K-12; Escherichia coli; Pseudomonas aeruginosa; Bacillus cereus AS1.126; Escherichia coli AS1.349.
Holding throughout (experiment): ≥ marks a high value that may be exact or a test limit, other limits are often not marked, values filed in µg/mL are converted to µM
In test [1] the test system is Listeria monocytogenes ATCC 19115.
Test [2] relates to Staphylococcus aureus CMCC 26003.
Test [3] has as its system Bacillus subtilis DSM 347.
Test [4] has as its system Escherichia coli DH5alpha.
For test [5], the system named is Franconibacter helveticus DSM 18396.
The subject of test [6] is Kocuria rhizophila DSM 348.
Test [7] deals with Acinetobacter baumannii Q12-0867.
In test [8] the test system is Acinetobacter baumannii Q13-0717.
Test [9] has as its system Campylobacter jejuni NCTC 11351.
For test [10], the system named is Enterococcus faecalis JH-2-2.
Test [11] relates to Klebsiella pneumoniae ATCC 700603.
Test [12] relates to Klebsiella pneumoniae NCTC 13442.
For test [13], the system named is Klebsiella pneumoniae Q14-0095.
Test [14] deals with Listeria monocytogenes NCTC 11994.
Test [15] deals with Pseudomonas aeruginosa ATCC 27853.
Test [16] has as its system Pseudomonas aeruginosa PAO1.
The test system of test [17] is Pseudomonas aeruginosa Q14-0208.
Test [18] has as its system Pseudomonas aeruginosa Q14-0890.
Test [19] deals with Salmonella typhimurium SL1344.
Test [20] concerns Staphylococcus aureus ATCC 29213.
Test [21] has as its system Staphylococcus aureus MRSA-15.
Test [22] concerns Staphylococcus aureus NCTC 12493.
Test [23] concerns Staphylococcus aureus Q14-0320.
For test [24], the system named is Staphylococcus aureus Q14-0325.
Test [25] has as its system Staphylococcus aureus RN4220.
Test [26] deals with Escherichia coli ATCC 25922.
In test [27] the test system is Xanthomonas axonopodis pv. glycines ISBF 327.
Test [28] deals with Enterococcus faecalis CGMCC 1.595.
Test [29] relates to Enterococcus faecium CGMCC 1.2334.
For test [30], the system named is Lactococcus lactis AS1.1690.
In test [31] the test system is Pseudomonas aeruginosa CGMCC 1.860.
Test [32] has as its system Staphylococcus aureus AS1.72.

Converted amounts (≈) assume the structure as drawn. A value given as a limit tells only on which side of the number the result lay.

Regarding `CC[C@H](C)[C@H](NC(=O)[C@H](CCCN=C(N)N)NC(=O)[C@H](CCCN=C(N)N)NC(=O)[C@H](CC(C)C)NC(=O)[C@@H](N)Cc1ccccc1)C(=O)N[C@@H](CCCN=C(N)N)C(=O)N[C@H](C(N)=O)C(C)C` [FLRRIRV], the MIC in test [1] and in [2] was at least 133 µM in each case.

For the compound `CC[C@H](C)[C@H](NC(=O)CN)C(=O)NCC(=O)N[C@@H](CCCCN)C(=O)N[C@@H](C)C(=O)N[C@@H](CC(C)C)C(=O)N[C@@H](Cc1cnc[nH]1)C(=O)N[C@@H](CO)C(=O)N[C@@H](C)C(=O)N[C@@H](CCCCN)C(=O)N[C@@H](CCCCN)C(=O)N[C@@H](Cc1ccccc1)C(=O)NCC(=O)N[C@@H](CCCCN)C(=O)N[C@@H](C)C(=O)N[C@@H](Cc1ccccc1)C(=O)N[C@H](C(=O)NCC(=O)N[C@@H](CCC(=O)O)C(=O)N[C@H](C(=O)N[C@@H](CCSC)C(=O)N[C@@H](CC(N)=O)C(=O)N[C@@H](CO)C(=O)O)[C@@H](C)CC)C(C)C` [GIGKALHSAKKFGKAFVGEIMNS], the MIC in [3] is at least 32 µM; in test [4], at least 128 µM; in test [5] it was at least 128 µM; in test [6], at least 256 µM.

As for `CC[C@H](C)[C@H](NC(=O)CN)C(=O)NCC(=O)N[C@@H](CCCCN)C(=O)N[C@@H](Cc1ccccc1)C(=O)N[C@@H](CC(C)C)C(=O)N[C@@H](Cc1cnc[nH]1)C(=O)N[C@@H](CO)C(=O)N[C@@H](C)C(=O)N[C@@H](CCCCN)C(=O)N[C@@H](CCCCN)C(=O)N[C@@H](Cc1ccccc1)C(=O)N[C@@H](C)C(=O)N[C@@H](CCCCN)C(=O)N[C@@H](C)C(=O)N[C@@H](Cc1ccccc1)C(=O)N[C@H](C(=O)NCC(=O)N[C@@H](CCC(=O)O)C(=O)N[C@H](C(=O)N[C@@H](CCSC)C(=O)N[C@@H](CC(N)=O)C(=O)N[C@@H](CO)C(=O)O)[C@@H](C)CC)C(C)C` [GIGKFLHSAKKFAKAFVGEIMNS], the MIC was found to be 1 µM (≈ 2.48 µg/mL) in test [3], 16 µM (≈ 39.7 µg/mL) in test [4], 4 µM (≈ 9.92 µg/mL) in test [5] and 8 µM (≈ 19.8 µg/mL) in test [6].

For `CC[C@H](C)[C@H](NC(=O)CNC(=O)[C@H](CCCN=C(N)N)NC(=O)CNC(=O)[C@H](CCCCN)NC(=O)[C@H](CC(N)=O)NC(=O)[C@H](CCCCN)NC(=O)[C@H](CC(=O)O)NC(=O)[C@H](CCCN=C(N)N)NC(=O)[C@H](CS)NC(=O)[C@H](Cc1ccc(O)cc1)NC(=O)[C@@H](NC(=O)[C@H](CCCCN)NC(=O)[C@H](CC(C)C)NC(=O)[C@H](CCCN=C(N)N)NC(=O)[C@@H](NC(=O)[C@H](Cc1ccccc1)NC(=O)[C@@H](N)CCCCN)C(C)C)[C@@H](C)CC)C(=O)N[C@@H](CO)C(=O)N[C@@H](Cc1ccccc1)C(=O)O` [KFVRLKIYCRDKNKGRGISF], the MIC was 26.3 µM (≈ 64 µg/mL) in test [7]; at least 52.7 µM in [8]; at least 52.7 µM in test [9]; at least 52.7 µM against Campylobacter jejuni; at least 52.7 µM in test [10]; 26.3 µM (≈ 64 µg/mL) with Escherichia coli K-12. For the same compound, the MIC was 52.7 µM (≈ 128 µg/mL) against Escherichia coli; 52.7 µM (≈ 128 µg/mL) in [11]; at least 52.7 µM in [12]; at least 52.7 µM in test [13]; at least 52.7 µM in [14]; 52.7 µM (≈ 128 µg/mL) in test [15]. The MIC in test [16] was 52.7 µM (≈ 128 µg/mL); in test [17], at least 52.7 µM; in test [18] it was 26.3 µM (≈ 64 µg/mL); against Pseudomonas aeruginosa, 13.2 µM (≈ 32 µg/mL); in [19], at least 52.7 µM; in [20], over 52.7 µM. Also, the MIC is at least 52.7 µM in test [21]; 26.3 µM (≈ 64 µg/mL) in test [22]; at least 52.7 µM in [23]; 26.3 µM (≈ 64 µg/mL) in [24]; at least 52.7 µM in [25].

Turning to `CC(C)C[C@H](NC(=O)[C@H](CCC(N)=O)NC(=O)[C@H](CCCN=C(N)N)NC(=O)[C@H](CC(C)C)NC(=O)[C@H](CC(C)C)NC(=O)[C@@H](NC(=O)[C@H](CC(C)C)NC(=O)[C@@H](NC(=O)[C@H](CCCN=C(N)N)NC(=O)[C@H](CCCN=C(N)N)NC(=O)[C@H](CCCCN)NC(=O)[C@H](C)NC(=O)[C@@H](N)CC(C)C)C(C)C)[C@@H](C)O)C(=O)N[C@@H](CCCN=C(N)N)C(=O)N[C@@H](CCCN=C(N)N)C(=O)N[C@H](C(=O)N[C@@H](CO)C(=O)N1CCC[C@H]1C(=O)N[C@@H](CO)C(=O)N[C@@H](CO)C(N)=O)C(C)C` [LAKRRVLTLLRQLRRVSPSS], the MIC in [26] worked out at 14 µM (≈ 32.9 µg/mL); in [27] it was 2 µM (≈ 4.7 µg/mL).

Regarding `NC(N)=NCCC[C@H](NC(=O)[C@H](Cc1cnc[nH]1)NC(=O)[C@H](Cc1c[nH]c2ccccc12)NC(=O)[C@H](Cc1ccccc1)NC(=O)[C@H](CCCN=C(N)N)NC(=O)[C@H](CCCN=C(N)N)NC(=O)[C@H](Cc1c[nH]c2ccccc12)NC(=O)[C@H](Cc1cnc[nH]1)NC(=O)[C@@H](N)CCCN=C(N)N)C(=O)O` [RHWRRFWHR], the MIC in the test with Bacillus cereus AS1.126 came out at 6.25 µM (≈ 8.98 µg/mL); in [28], 3.13 µM (≈ 4.5 µg/mL); in test [29], 6.25 µM (≈ 8.98 µg/mL); in the test on Escherichia coli AS1.349 it was 6.25 µM (≈ 8.98 µg/mL); in [30] it was 6.25 µM (≈ 8.98 µg/mL); in test [31], 3.13 µM (≈ 4.5 µg/mL). The minimum inhibitory concentration (MIC) in test [32] was 12.5 µM (≈ 18 µg/mL).

Usually MIC stands for the smallest concentration in the dilution series that meets the test's criterion for growth inhibition. Higher therefore signals a less susceptible organism.
